The text below walks through data of paper PMC7482845, “G10 is a direct activator of human STING” (PLoS ONE, 2020).

Test [1] addresses T1, R232 variant of human STING (Homo sapiens, UniProt Q86WV6, H232R).
T1 construct: the ER fraction from R232.STING transfected HEK293T cells which contained full length STING
Description: Luciferase (ISRE.ISG reporter) assay in HEK293T cells stably expressing R232 hSTING. The format is cell-based. The settings on record: for EC50: HEK293T cells expressing R232 hSTING, luciferase reporter, read-out: HEK.R232 EC50; for activity against R232 STING, in words: HEK.R232 cellular assay. From the text: (§1) • a) Stable STING expressing cells. Stable HEK293T STING-expressing cell lines were generated using plasmids purchased from Invivogen, CA, USA, that contain STING cDNA cloned into the pUNO-1 vector under the hEF1-HTLV promoter as well as the Blasticidin selection cassette. The human STING plasmids corresponding to the R232, H232 and HAQ variants were directly procured from Invivogen while the AQ and Q variants were created by mismatch PCR using cDNA from HAQ.STING and R232.STING variants respectively. These vectors were individually transfected into HEK293T cells using Lipofectamine (Invitrogen) and transfected cells were expanded under Blasticidin selection. These cells were further subjected to clonal selection using the limiting dilution method to obtain clonally pure populations of HEK293T cells expressing each of the five human STING variants. Clones with minimal ligand independent activation of STING were chosen for cellular experiments. • b) N-His R232.hSTING HEK293T cells. HEK293T cells stably expressing N-His R232.hSTING were generated by the following described method. N-His R232.hSTING.pcDNA Myc B plasmid was transfected into HEK293T cells using Lipofectamine reagent (Invitrogen) and the transfected cells were selected under Hygromycin. Stably STING expressing HEK293T cells thus selected were further subjected to single cell clonal selection using the limiting dilution method to obtain a clonally pure population of HEK293T cells expressing the human R232 STING variant.
[…] clonally selected HEK293T-hSTING-Luciferase cells or control HEK293T-Luciferase cells were seeded in 384-well plates in growth medium and stimulated with known STING agonists or novel compounds. […]
(A reporter such as luciferase makes a cellular process visible.)

The target in test [2] is T2, HAQ STING (THP-1 cells) (Homo sapiens, UniProt Q86WV6, G230A/R293Q/R71H).
T2 construct: THP1 cells constitutively express the HAQ variant of human STING; host or cells: THP-1
T2 sequence (Q86WV6 whole entry R71H/G230A/R293Q): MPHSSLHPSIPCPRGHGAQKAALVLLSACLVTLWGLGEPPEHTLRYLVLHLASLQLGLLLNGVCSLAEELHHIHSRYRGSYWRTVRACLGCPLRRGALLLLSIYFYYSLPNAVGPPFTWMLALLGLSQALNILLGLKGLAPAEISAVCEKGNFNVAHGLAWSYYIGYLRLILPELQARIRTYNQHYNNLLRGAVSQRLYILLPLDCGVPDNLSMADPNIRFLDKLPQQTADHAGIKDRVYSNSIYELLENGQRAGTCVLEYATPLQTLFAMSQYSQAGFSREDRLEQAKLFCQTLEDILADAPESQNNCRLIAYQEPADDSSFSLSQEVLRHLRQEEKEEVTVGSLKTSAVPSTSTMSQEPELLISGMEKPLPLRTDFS
Put plainly: THP1 cellular assay (EC50). It is filed as cell-based. The settings on record: for THP-1 EC50 / EC50: THP-1 cells (HAQ STING); for activation of THP1 cells, in words: THP1 cellular assay.

Test [3] concerns the target T3, recombinant CTT domain of R232 STING (Homo sapiens, UniProt Q86WV6, H232R).
T3 construct: corresponding to the soluble domain of STING (138 to 379 aa) protein; purchased Cayman Chemicals (STING); Invitrogen (TBK1) 22816 (STING); A31514 (TBK1)
Description: In vitro kinase assay, recombinant CTT domain of R232 STING plus recombinant TBK1. The format is biochemical. To be noted: STING source not stated (S3 Fig). The method, then: 50ng of recombinant STING protein (Cayman Chemicals Cat# 22816) corresponding to the soluble domain of STING (138 to 379 aa) protein or 1 μl of ER fraction (8mg/ml) containing full length STING from R232.hSTING was incubated with 20 ng of recombinant full length TBK1 protein (Invitrogen, Cat# A31514) in the presence/absence of test compound in 20 μl reaction buffer (50mM Tris-HCl of pH 7.4, 100mM NaCl, 5mM MgCl2, 5mM MnCl2, 10% glycerol, 0.2mM Na3VO4, 20mM β-glycero-PO4, 0.5mM ATP) and 0.01% BSA at 30 °C for 45 min. The reaction was quenched by addition of 2 μl of 10X EDTA to a final concentration of […]. Samples were treated with 4x gel loading dye followed by electrophoresis in 10% SDS-PAGE gels and transferred to Immobilon-P membranes (Millipore). […] Anti-rabbit HRP labelled secondary antibody (Abcam) and Clarity Max™ western ECL substrate (Biorad, Cat# 1705062) were used for visualization of bands using a BioRad XRS plus imager.

In test [4] the test system is multiple STING variants overexpressed in HEK293T cells. Description: Luciferase reporter assay of STING variants overexpressed in HEK293T cells (Compound 8). The settings on record: HEK293T cells (S4 Fig). It is filed as cell-based, human.
Source text: as §1, with “HEK293T cells stably expressing N-His R232.hSTING were generated by the following described method. N-His R232.hSTING.pcDNA Myc B plasmid was transfected into HEK293T cells using Lipofectamine reagent (Invitrogen) and the transfected cells were selected under Hygromycin. Stably STING expressing HEK293T cells thus selected were further subjected to single cell clonal selection using the limiting dilution method to obtain a clonally pure population of HEK293T cells expressing the human R232 STING variant.” left out
5 x 10^5 clonally selected HEK293T-hSTING-Luciferase cells or control HEK293T-Luciferase cells were seeded in 384-well plates in growth medium and stimulated with known STING agonists or novel compounds. Supernatants were removed after 20 hours of treatment and secretory reporter gene activity was measured using the Quanti-Luc detection system (Invivogen) on a Spectramax i3X luminometer.

The subject of test [5] is Human STING variants (HEK293T cells). Description: Phosphorylation of STING variants overexpressed in HEK293T cells (Compound 8). It is filed as cell-based. To be noted: HEK293T cells (S5 Fig). The method, then:
5 x 10^5 cells were seeded in 24-well plates in 500 μl growth medium and stimulated with novel compounds at 10μM. After 2 hours of treatment cells were harvested by centrifugation and cell pellets were lysed in RIPA buffer (20mM Tris-Cl, 150mM NaCl, 0.5mM EDTA, 1% NP40, 0.05% SDS) containing 1x phosphatase inhibitor cocktail 3 (Sigma) and 1x protease inhibitor (Roche) to extract the soluble fraction of protein. 10 μg of extracted protein was electrophoresed in 10% SDS-PAGE gels and transferred onto Immobilon-P membranes (Millipore). […] Anti-rabbit HRP label secondary antibody (Abcam) and Clarity Max™ western ECL substrate (Biorad—cat# 1705062) were used for visualization of bands using a BioRad XRS plus imager.

The target of test [6] is T4, STING in human PBMCs (Homo sapiens, UniProt Q86WV6).
T4 construct: endogenous in cells; host or cells: human PBMCs, multiple donors
T4 sequence (Q86WV6 whole entry): as the sequence (Q86WV6 whole entry R71H/G230A/R293Q) above, with H71R, A230G, Q293R counted along it
Description: Phosphorylation of STING in human PBMCs. The format is cell-based. The settings on record: multiple donors (S6 Fig).

Test [7] has as its target T5, STING in human tumor lines (Homo sapiens, UniProt Q86WV6).
T5 construct: endogenous in cells
Put plainly: Phosphorylation of STING in human tumor lines. It is filed as cell-based. The settings on record: S7 Fig.

Test [8] relates to human STING. Details: method as in PMID 23585680. The settings on record: any variant of human STING; cited from earlier work.

T1 sequence (Q86WV6 whole entry H232R): as the sequence (Q86WV6 whole entry R71H/G230A/R293Q) above, with H71R, A230G, H232R, Q293R counted along it
T3 sequence (Q86WV6 138-379 H232R): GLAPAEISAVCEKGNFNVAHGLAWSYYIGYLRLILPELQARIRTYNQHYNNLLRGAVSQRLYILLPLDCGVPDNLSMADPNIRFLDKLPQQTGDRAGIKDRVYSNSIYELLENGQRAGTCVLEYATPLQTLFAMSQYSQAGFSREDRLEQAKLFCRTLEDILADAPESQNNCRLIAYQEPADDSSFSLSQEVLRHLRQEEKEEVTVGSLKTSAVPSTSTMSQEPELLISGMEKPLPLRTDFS
T5 sequence (Q86WV6 whole entry): as the sequence (Q86WV6 whole entry R71H/G230A/R293Q) above, with H71R, A230G, Q293R counted along it

Take `O=C(NCc1ccco1)c1ccc2c(c1)N(Cc1c(Cl)cccc1Cl)C(=O)CS2` [Compound 1, 4-(2,6-Dichlorobenzyl)-N-(furan-2-ylmethyl)-3-oxo-3,4-dihydro-2H-benzo[b][1,4]thiazine-6-carboxamide]: in test [1], the EC50 (in general, the concentration that produces a half-maximal response) turned out to be 2160 nM. Moreover, in test [2], the “THP-1 EC50” value was “Nil @ 30uM”.
Take `O=C(NCc1ccco1)c1ccc2c(c1)N(Cc1c(F)cccc1F)C(=O)CS2` [Compound 2, 4-(2,6-Difluorobenzyl)-N-(furan-2-ylmethyl)-3-oxo-3,4-dihydro-2H-benzo[b][1,4]thiazine-6-carboxamide]: in test [1], the EC50 is 3970 nM. For the same compound, in test [2], the “THP-1 EC50” value is reported as “Nil @ 30uM”.
For `O=C(NCc1ccco1)c1ccc2c(c1)N(Cc1ccccc1)C(=O)CS2` [Compound 3, 1-Benzyl-N-(furan-2-ylmethyl)-2-oxo-2,3-dihydro-1H-benzo[b][1,4]thiazine-7-carboxamide], the EC50 in test [1] turned out to be 9130 nM. Besides, the “THP-1 EC50” value in test [2] is reported as “Nil @ 30uM”.
For the compound `O=C(NCc1ccc(F)cc1F)c1ccc2c(c1)N(Cc1c(F)cccc1Cl)C(=O)CS2` [Compound 4, 4-(2-Chloro-6-fluorobenzyl)-N-(2,4-difluorobenzyl)-3-oxo-3,4-dihydro-2H-benzo[b][1,4]thiazine-6-carboxamide], the EC50 in test [1] stood at 292 nM. Besides, in test [2], the “activation of THP1 cells, in words” value was “very weak activation” and the EC50 is more than 30000 nM.
For the compound `O=C(NCc1c(F)cc(F)cc1F)c1ccc2c(c1)N(Cc1c(F)cccc1Cl)C(=O)CS2` [Compound 5, 4-(2-Chloro-6-fluorobenzyl)-3-oxo-N-(2,4,6-trifluorobenzyl)-3,4-dihydro-2H-benzo[b][1,4]thiazine-6-carboxamide], the EC50 in test [1] turned out to be 188 nM. Further, in test [2], the “activation of THP1 cells, in words” value is “very weak activation” and the EC50 was more than 10000 nM.
For `COc1cc(F)c(CN2C(=O)CSc3ccc(C(=O)NCc4c(F)cc(F)cc4F)cc32)c(F)c1` [Compound 6, 4-(2,6-Difluoro-4-methoxybenzyl)-3-oxo-N-(2,4,6-trifluorobenzyl)-3,4-dihydro-2H-benzo[b][1,4]thiazine-6-carboxamide], in test [1], the EC50 was found to be 160 nM and the “activity against R232 STING, in words” value is listed as “sharp increases in activity”. The compound further showed an EC50 in test [2] of more than 10000 nM.
Consider `O=C(NCc1c(F)cc(F)cc1F)c1ccc2c(c1)N(Cc1c(F)cc(O)cc1F)C(=O)CS2` [Compound 7, 4-(2,6-Difluoro-4-hydroxybenzyl)-3-oxo-N-(2,4,6-trifluorobenzyl)-3,4-dihydro-2H-benzo[b][1,4]thiazine-6-carboxamide], for which, in test [1], the concentration for a half-maximal effect (EC50) came to 71.6 nM and the “activity against R232 STING, in words” value is “sharp increases in activity”. In addition, in test [2], the “activation of THP1 cells, in words” value is listed as “significant activity” and the EC50 was 1380 nM.
Consider `CC1Sc2ccc(C(=O)NCc3c(F)cc(F)cc3F)cc2N(Cc2c(F)cccc2Cl)C1=O` (stereo not shown) [Compound 8, 4-(2-Chloro-6-fluorobenzyl)-2-methyl-3-oxo-N-(2,4,6-trifluorobenzyl)-3,4-dihydro-2H-benzo[b][1,4]thiazine-6-carboxamide], for which, in test [1], the EC50 worked out at 122 nM and the “activity against R232 STING, in words” value was “sub-micromolar activity”. In test [2], the “activation of THP1 cells, in words” value was “sub-micromolar activity” and the EC50 is 944 nM. Also, the “activity in the cell-free pSTING assay” value in test [3] is on record as “confirmed activity”. Also, in test [4], the “activation of multiple STING variants, luciferase reporter assay” value was “activated”. In addition, in test [5], the “phosphorylation of human STING variants” value is “phosphorylated”. In addition, the “phosphorylation of STING in human PBMCs” value in test [6] was “phosphorylated STING”. In addition, the “phosphorylation of STING in human tumor lines” value in test [7] is “phosphorylated STING”.
Regarding `CC1Sc2ccc(C(=O)NCc3c(F)cc(F)cc3F)cc2N(Cc2c(F)ccc(O)c2Cl)C1=O` (stereo not shown) [Compound 9, 4-(2-Chloro-6-fluoro-3-hydroxybenzyl)-2-methyl-3-oxo-N-(2,4,6-trifluorobenzyl)-3,4-dihydro-2H-benzo[b][1,4]thiazine-6-carboxamide], in test [1], the EC50 stood at 96 nM and the “activity against R232 STING, in words” value was “sub-micromolar activity”. In test [2], the “activation of THP1 cells, in words” value is “sub-micromolar activity” and a half-maximal response (EC50) required 412 nM.
Consider `CC1Sc2ccc(C(=O)NCc3c(F)cc(F)cc3F)cc2N(Cc2cc(F)cc(F)c2)C1=O` (stereo not shown) [Compound 10], for which the EC50 is 421 nM in test [1] and approximately 6000 nM in test [2].
On to `CC1Sc2ncc(C(=O)NCc3cc4ccccc4o3)cc2N(Cc2cc(F)cc(F)c2)C1=O` (stereo not shown) [Compound 12, N-(Benzofuran-2-ylmethyl)-1-(3,5-difluorobenzyl)-3-methyl-2-oxo-2,3-dihydro-1H-pyrido[2,3-b][1,4]thiazine-7-carboxamide], for which the EC50 is 91 nM in test [1] and approximately 8000 nM in test [2].
Turning to `Cc1ccc2c(=O)c3cccc(CC(=O)O)c3oc2c1C` [DMXAA, 5,6 dimethyl xanthenone 4-acetic acid], the “activation of human STING variants” value in test [8] is on record as “does not activate”.
